{
  "source": "patent EP0278501A2",
  "about": "“Nucleotide analogs, their production and use” (Takeda Chemical Industries, Ltd., priority 1987, dated 1988)",
  "key": {"[1]": {"tested_on": "cyclic AMP phosphodiesterase originated from a cow brain", "assay": "Reaction with cyclic AMP phosphodiesterase", "type": "biochemical", "details": "enzyme originated from a cow brain"}, "[2]": {"assay": "Cytotoxicity in non-infected control culture (visible disruption of normal cell morphology)", "type": "cell-based", "details": "monkey, vero cells; minimum concentration to cause a visible disruption of normal cell morphology; non-infected Vero control culture, three days; read-out: Cytotoxicity^b)"}, "[3]": {"tested_on": "Herpes Simplex Virus Type 1, HF Strainn", "assay": "Inhibition of viral cytopathogenic effect in infected Vero cells", "type": "cell-based", "from_the_text": "Inhibitory Effect of Antiviral Compounds against Herpes Simplex Virus Type 1, HF Strainn\nVero cells were infected with 100 TCIDso(50% tissue-culture infected doses) of viruses and cultured with various concentrations of the compounds."}, "Vero cells": {"tested_on": "Vero cells", "assay": "Cytotoxicity in non-infected control culture (visible disruption of normal cell morphology)", "type": "cell-based", "details": "minimum concentration to cause a visible disruption of normal cell morphology; non-infected Vero control culture, three days; 4320 min"}},
  "data": [
    {"compound": "2'-Deoxyaristeromycin-3',6'-cyclic phosphate [Example 1]", "values": [
      {"measurement": "conversion by cyclic AMP phosphodiesterase", "setting": "[1]", "result": "changed to 2'-deoxyaristeromycin-mono phosphate"}
    ]},
    {"compound": "Nc1nc2c(ncn2[C@@H]2C[C@H](COP(=O)(O)O)[C@@H](O)C2)c(=O)[nH]1", "note": "[Carbocyclic•2'-deoxyguanosine-6'-monophosphate]", "values": [
      {"measurement": "MCC at 72 h", "setting": "[2]", "result": 50, "unit": "µg/mL"},
      {"measurement": "EC50", "setting": "[3]; Human alphaherpesvirus 1, 72 h; concentration required to reduce the viral cytopathogenic effect by 50%; Vero cells infected with 100 TCID50; observed three days after the infection; read-out: ID50^a)", "result": 0.2, "unit": "µg/mL"}
    ]},
    {"compound": "Carbocyclic•2'-deoxyguanosine 6'-triphosphate", "values": [
      {"measurement": "Cytotoxicity^b)", "setting": "Vero cells", "result": 50, "unit": "µg/mL"},
      {"measurement": "ID50^a)", "setting": "[3]; concentration required to reduce the viral cytopathogenic effect by 50%, Vero cells infected with 100 TCID50, observed three days after the infection, 4320 min", "result": 0.4, "unit": "µg/mL"}
    ]}
  ]
}
